Entries after “also recorded” stand apart in the source; their conditions may differ.
What was measured:
[1] = biological target: proteinase K (Parengyodontium album, UniProt P06873); experiment: Biostability after incubation with proteinase K over 28 days; type: in vitro ADME; conditions: up to 28 days
From the text: L-peptide NapFFKY(p)G-OH (small circle) and D-peptide NapffkY(p)G-OH (upright triangle) are peptide-only controls that also form hydrogels in response to phosphatase enzymes.

[2] = system: HIV; conditions: cited from earlier work

Sequence of proteinase K (P06873 106-384): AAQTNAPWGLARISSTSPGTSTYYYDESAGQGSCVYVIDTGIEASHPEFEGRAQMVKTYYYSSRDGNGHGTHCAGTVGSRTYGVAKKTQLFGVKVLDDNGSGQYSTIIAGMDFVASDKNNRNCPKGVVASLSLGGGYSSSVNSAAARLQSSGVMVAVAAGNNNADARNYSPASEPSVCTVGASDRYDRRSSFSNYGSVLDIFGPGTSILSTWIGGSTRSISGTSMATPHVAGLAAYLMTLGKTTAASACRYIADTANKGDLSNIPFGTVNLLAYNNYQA

Row | Compound | Biostability in the presence of proteinase-K (in words) [1] | IC50 range [2] [µg/mL]
1 | NapffkY(p)G-OH [D-peptides, reference compound] | significant stability after 28 days | 
2 | (NPhe)4GGGGKY(p)-OH [PP4G L-peptide variant] | breaks down between days; also recorded: breaks down within days | 
3 | NCCCC[C@H](NC(=O)[C@H](Cc1ccccc1)NC(=O)[C@H](Cc1ccccc1)NC(=O)Cc1ccc2ccccc2c1)C(=O)N[C@@H](Cc1ccc(OP(=O)(O)O)cc1)C(=O)NCC(=O)O [L-peptide, NapFFKY(p)G-OH, reference compound] | degrades rapidly, within hours | 
4 | Cc1cn([C@H]2C[C@H](N=[N+]=[N-])[C@@H](CO)O2)c(=O)[nH]c1=O [zidovudine] |  | 0.03 to 0.13
